Laboratory results published in patent publication US20020142347A1, “Biosensor” (BIOSENSOR ApS, priority 2000, published 2002).

Legend:
FACI53 [1] = target: T1, FACI53 (Bos taurus, UniProt P07107, A54C); assay: Isoelectrical focusing of acyl-CoA binding to FACI53; parameters: species or system bovine; conditions: ligand in four-fold molar excess over protein
T1 construct: badan (6-bromoacetyl-2-dimethylaminonaphthalene) fluorophore on the introduced Cys-53; made in house; host or cells: E. coli BL21(DE3)pLysS, pET3a vector
T1 sequence (P07107 2-87 A54C): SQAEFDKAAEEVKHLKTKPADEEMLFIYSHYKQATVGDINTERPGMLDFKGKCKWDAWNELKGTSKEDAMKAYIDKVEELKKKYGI
Description: All the gels were prepared with ligands (1-7) in four-fold molar excess over protein. […] The protein-ligand complex shifted to a pl around 3.8. Legend: 1: Water, 2: CoA-SH, 3: C4-CoA, 4: C8-CoA, 5: C12-CoA, 6: C16-CoA, 7: C20-CoA, 8: Broad pl Calibration Kit (pH 3-10).
Quantitative determination of binding affinities (KD) were performed by isothermal titration micro calorimetry as previously described (Faergeman et. al., 1996; Biochemistry 35, 14118-14126). Qualitative evaluation of relative binding affinities were determined by isoelectrical focusing using the Pharmacia Fast Gel system according to the prescriptions given by the manufacture. Fluorescence emission changes induced by acyl-CoA binding to badan modified protein were determined as follows: 5 μl portions of acyl-CoAs were added from stock solutions disolved in binding buffer, (10 mM Hepes, 150 mM NaCL, 1 mM NaHPO4, pH 7.4) containing 3.4 μM Badan derivatized protein to a 1 ml 3.4 μM solution of the Badan derivatized ACBP in the same buffer. The fluorescence emission was measured on a SPEX FLOUROLOG (Industries Inc, Edison N.J., USA) with excitation at 400 nm and emission scan from 400 nm to 550 nm. […]

FACI53 [2] = target: T1, FACI53; assay: Fluorescence emission change of FACI-53 on titration with CoA and acyl-CoA esters; format: binding, bovine
Description: Quantitative determination of binding affinities (KD) were performed by isothermal titration micro calorimetry as previously described (Faergeman et. al., 1996; Biochemistry 35, 14118-14126). Qualitative evaluation of relative binding affinities were determined by isoelectrical focusing using the Pharmacia Fast Gel system according to the prescriptions given by the manufacture. Fluorescence emission changes induced by acyl-CoA binding to badan modified protein were determined as follows: 5 μl portions of acyl-CoAs were added from stock solutions disolved in binding buffer, (10 mM Hepes, 150 mM NaCL, 1 mM NaHPO4, pH 7.4) containing 3.4 μM Badan derivatized protein to a 1 ml 3.4 μM solution of the Badan derivatized ACBP in the same buffer. The fluorescence emission was measured on a SPEX FLOUROLOG (Industries Inc, Edison N.J., USA) with excitation at 400 nm and emission scan from 400 nm to 550 nm. The concentration of acyl-CoA in the aqueous phase was determined from the fluorescence emission sensitivities at 495 and 470 nm repectively essentially by the method described by (Grynkiewickz et. al.,1985, J. Biol. Chem. 260, 3440-3450) according to which:
Fluorescence titration emission spectra from 415 nm to 550 nm (excitation at 400 nm) were performed for CoA, C4:0-, C8:0-, C12:0-, C16:0-, and C20:0-CoA with all four mutated and badan modified proteins.
Titration of FACI-53 dissolved in binding buffer with the above mentioned acyl-CoA esters produced a smooth downward shift in fluorescence emission maximum from 525 nm when no ligand was present to 508, 503, 490, 492, 496 and 514 with increasing concentrations of CoA, C4:0-, C8:0-, C12:0-, C16:0- and C20:0-CoA respectively.

native bovine ACBP = target: T2, native bovine ACBP (Bos taurus, UniProt P07107); conditions: isothermal titration microcalorimetry, >0.1 M salt; literature; read-out: KD for binding to native bovine ACBP; cited from earlier work
T2 sequence (P07107 1-87): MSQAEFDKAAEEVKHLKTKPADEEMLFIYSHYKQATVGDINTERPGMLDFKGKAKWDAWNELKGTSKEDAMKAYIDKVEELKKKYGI

Binding to FACI53 by isoelectrical focusing (FACI53 [1]): shown to bind | Magnitude of emission of FACI-53, fold increase (FACI53 [2]): 1.3 fold | Fluorescence emission maximum of FACI-53 with ligand (FACI53 [2]; 525 nm when no ligand present, excitation 400 nm): 496 nm | Relative emission of FACI-53 at 495 nm, fold increase (FACI53 [2]; emission at 495 nm): 2.2 fold
SMILES: CCCCCCCCCCCCCCCC(=O)SCCNC(=O)CCNC(=O)[C@H](O)C(C)(C)COP(=O)(O)OP(=O)(O)OC[C@H]1O[C@@H](n2cnc3c(N)ncnc32)[C@H](O)[C@@H]1OP(=O)(O)O [C16:0-CoA, palmitoyl-CoA]
Kd (native bovine ACBP): 2 nM
